Columns and labels:
Format in all cases: in vivo
[1] = test system: barnyardgrass (Echinochloa crus-galli L.): ECHCG; assay: Test Example 1 pre-emergence herbicidal activity, ECHCG; conditions: Rate 63 g a.i./ha, visually observed 20th to 23rd day after application
How it was run: (§1)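 Plants were sown in pots of upland field soil and treated the following day, before emergence, with the formulated compound sprayed in 500 L/ha water. Herbicidal effect was judged by eye 20–23 days later on a 0–100% scale.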

[2] = test system: crabgrass (Digitaria sanguinalis L.): DIGSA; assay: Test Example 1 pre-emergence herbicidal activity, DIGSA; conditions: Rate 63 g a.i./ha, visually observed 20th to 23rd day after application
How it was run: as §1

[3] = test system: green foxtail (Setaria viridis L.): SETVI; assay: Test Example 1 pre-emergence herbicidal activity, SETVI; conditions: Rate 63 g a.i./ha, visually observed 20th to 23rd day after application
How it was run: as §1

[4] = test system: redroot pigweed (Amaranthus retroflexus L.): AMARE; assay: Test Example 1 pre-emergence herbicidal activity, AMARE; conditions: Rate 63 g a.i./ha, visually observed 20th to 23rd day after application
How it was run: as §1

[5] = test system: prickly sida (Sida spinosa L.): SEDSP; assay: Test Example 1 pre-emergence herbicidal activity, SIDSP; conditions: Rate 63 g a.i./ha, visually observed 20th to 23rd day after application
How it was run: as §1

[6] = test system: velvetleaf (Abutilon theophrasti): ABUTH; assay: Test Example 1 pre-emergence herbicidal activity, ABUTH; conditions: Rate 63 g a.i./ha, visually observed 20th to 23rd day after application
How it was run: as §1

[7] = test system: rice (Oryza sativa L.): ORYSA; assay: Test Example 1 pre-emergence herbicidal activity, ORYSA; conditions: Rate 63 g a.i./ha, visually observed 20th to 23rd day after application
How it was run: as §1

[8] = test system: wheat (Triticum aestivum L.): TRZAX; assay: Test Example 1 pre-emergence herbicidal activity, TRZAX; conditions: Rate 63 g a.i./ha, visually observed 20th to 23rd day after application
How it was run: as §1

[9] = test system: corn (Zea mays L.): ZEAMX; assay: Test Example 1 pre-emergence herbicidal activity, ZEAMX; conditions: Rate 63 g a.i./ha, visually observed 20th to 23rd day after application
How it was run: as §1

[10] = test system: soybean (Glycine max Merr.): GLXMA; assay: Test Example 1 pre-emergence herbicidal activity, GLXMA; conditions: Rate 63 g a.i./ha, visually observed 20th to 23rd day after application
How it was run: as §1

[11] = test system: barnyardgrass (Echinochloa crus-galli L.), ECHCG; assay: Test Example 2 post-emergence (foliage treatment) herbicidal activity, ECHCG; conditions: 63 g a.i./ha
How it was run: (§2)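 Seeds are sown in upland soil in pots, and seedlings are sprayed once they reach set leaf stages (pigweed 0.1-1.5, barnyardgrass 1.1-2.1, crabgrass 1.0-2.0, rice 1.0-2). The formulated compound goes on in 500 L/ha water containing 0.1% (v/v) spreader. Effect is judged by eye 20-23 days on, as percent control.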

[12] = test system: crabgrass (Digitaria sanguinalis L.), DIGSA; assay: Test Example 2 post-emergence (foliage treatment) herbicidal activity, DIGSA; conditions: 63 g a.i./ha
How it was run: as §2

[13] = test system: green foxtail (Setaria viridis L.), SETVI; assay: Test Example 2 post-emergence (foliage treatment) herbicidal activity, SETVI; conditions: 63 g a.i./ha
How it was run: (§3)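 A small sprayer delivered the diluted WP or EC formulation (500 L/ha water, 0.1% v/v spreader) over emerged seedlings in upland soil pots. Damage relative to untreated plants was graded visually from 0 to 100% three weeks or so later (days 20-23).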

[14] = test system: redroot pigweed (Amaranthus retroflexus L.), AMARE; assay: Test Example 2 post-emergence (foliage treatment) herbicidal activity, AMARE; conditions: 63 g a.i./ha
Text: Upland field soil was put into a 1/170,000 ha pot, and seeds of various plants were sown. Then, when the plants reached predetermined leaf stages {1. barnyardgrass (Echinochloa crus-galli L.), ECHCG: 1.1-2.1 leaf stage, 2. crabgrass (Digitaria sanguinalis L.), DIGSA: 1.0-2.0 leaf stage, 3. green foxtail (Setaria viridis L.), SETVI: 1.0-2.2 leaf stage, 4. redroot pigweed (Amaranthus retroflexus L.), AMARE: 0.1-1.5 leaf stage, 5. prickly sida (Sida spinosa L.), SIDSP: 0.1-0.6 leaf stage, 6. velvetleaf (Abutilon theophrasti), ABUTH: 0.1-0.6 leaf stage, 7. common cocklebur (Xanthium strumarium L.), XANST: 0.1 leaf stage, 8. rice (Oryza sativa L.), ORYSA; 1.0-2 leaf stage, 9. wheat (Triticum aestivum L.), TRZAX: 2.3-3.5 leaf stage, 10. corn (Zea mays L.), ZEAMXN 2.1-2.6 leaf stage, 11. soybean (Glycine max Merr.), GLXMA: primary leaf stage}, a wettable powder or emulsifiable concentrate having the compound of the present invention formulated in accordance with a usual formulation method, was weighed so that the active ingredient would be a predetermined amount, and diluted with water in an amount of 500 L/ha. To the diluted solution, 0.1% (v/v) of an agricultural spreader was added. The herbicide adjusted was applied by a small size sprayer for foliage treatment. On the 20th to 23rd day after the application of the herbicide, the growth of the respective plants was visually observed, and the herbicidal effects were evaluated by growth controlling degrees (%) ranging from 0 (equivalent to the untreated control) to 100 (complete kill), whereby the results shown in Table 5, were obtained. Compound Nos. in Table 5 correspond to Compound Nos. in Table 1 and 2 given hereinbefore.

[15] = test system: prickly sida (Sida spinosa L.), SIDSP; assay: Test Example 2 post-emergence (foliage treatment) herbicidal activity, SIDSP; conditions: 63 g a.i./ha
How it was run: as §3

[16] = test system: velvetleaf (Abutilon theophrasti), ABUTH; assay: Test Example 2 post-emergence (foliage treatment) herbicidal activity, ABUTH; conditions: 63 g a.i./ha
How it was run: as §3

[17] = test system: rice (Oryza sativa L.), ORYSA; assay: Test Example 2 post-emergence (foliage treatment) herbicidal activity, ORYSA; conditions: 63 g a.i./ha
How it was run: as §2

[18] = test system: wheat (Triticum aestivum L.), TRZAX; assay: Test Example 2 post-emergence (foliage treatment) herbicidal activity, TRZAX; conditions: 63 g a.i./ha
How it was run: as §3

[19] = test system: corn (Zea mays L.), ZEAMX; assay: Test Example 2 post-emergence (foliage treatment) herbicidal activity, ZEAMX; conditions: 63 g a.i./ha
How it was run: as §3

[20] = test system: soybean (Glycine max Merr.), GLXMA; assay: Test Example 2 post-emergence (foliage treatment) herbicidal activity, GLXMA; conditions: 63 g a.i./ha
How it was run: as §3

SMILES	Pre-emergence Herbicidal Activity ECHCG (growth controlling degree) [1]	Pre-emergence Herbicidal Activity DIGSP (growth controlling degree) [2]	Pre-emergence Herbicidal Activity SETVI (growth controlling degree) [3]	Pre-emergence Herbicidal Activity AMARE (growth controlling degree) [4]	Pre-emergence Herbicidal Activity SIDSP (growth controlling degree) [5]	Pre-emergence Herbicidal Activity ABUTH (growth controlling degree) [6]	Pre-emergence Herbicidal Activity ORYSA (growth controlling degree) [7]	Pre-emergence Herbicidal Activity TRZAX (growth controlling degree) [8]	Pre-emergence Herbicidal Activity ZEAMX (growth controlling degree) [9]	Pre-emergence Herbicidal Activity GLXMA (growth controlling degree) [10]	growth controlling degree, ECHCO [11]	growth controlling degree, DIGSP [12]	growth controlling degree, SETVI [13]	growth controlling degree, AMARE [14]	growth controlling degree, SIDSP [15]	growth controlling degree, ABUTH [16]	growth controlling degree, ORYSA [17]	growth controlling degree, TRZAX [18]	growth controlling degree, ZEAMX [19]	growth controlling degree, GLXMA [20]
COc1c(Cl)cc(F)c(-c2nn(C)c(OC(F)F)c2Cl)c1NC(=O)C(C)=Cc1ccccc1 [Compound 1-251]	0%	20%	20%	100%	20%	30%	10%	0%	0%	0%	60%	70%	60%	100%	95%	95%	10%	20%	10%	40%
COc1c(Cl)cc(F)c(-c2nn(C)c(OC(F)F)c2Cl)c1NC(=O)CCc1ccccc1C [Compound 1-37]	60%	100%	80%	100%	95%	40%	20%	30%	0%	0%	98%	80%		100%	100%	100%	90%	50%	70%	98%
COc1c(Cl)cc(F)c(-c2nn(C)c(OC(F)F)c2Cl)c1NC(=O)CCC1CCCCC1 [Compound 1-259]	10%	20%	30%	100%	30%	0%	0%	10%	0%	0%	50%	30%	50%	100%		100%	10%	0%	0%	10%

From patent publication US20050245399A1, “Pyrazole derivatives as herbicidal compositions containing them” (ISHIHARA SANGYO KAISHA, LTD., priority 2004, published 2005)
